We go through 7 molecules from patent EP2070923A1, “Insecticide iminoheterocycles” (priority 2007, dated 2009).

Data set [1] relates to Meloidogyne incognita. Nature of the data set: Meloidogyne test (spray treatment), gall formation on lettuce roots. The format is in vivo. The note with it: 20 ppm; 100 % = no galls found. An excerpt: Meloidogyne-Test (Spritzbehandlung)
Zur Herstellung einer zweckmäßigen Wirkstoffzubereitung vermischt man 1 Gewichtsteil Wirkstoff mit der angegebenen Menge Lösungsmittel und verdünnt das Konzentrat mit Wasser auf die gewünschte Konzentration. Gefäße werden mit Sand, Wirkstofflösung, Meloidogyne incognita-Ei-Larven-Suspension und Salatsamen gefüllt. Die Salatsamen keimen und die Pflänzchen entwickeln sich. An den Wurzeln entwickeln sich die Gallen. Nach der gewünschten Zeit wird die nematizide Wirkung an Hand der Gallenbildung in % bestimmt. Dabei bedeutet 100 %, dass keine Gallen gefunden wurden; 0 % bedeutet, dass die Zahl der Gallen an den behandelten Pflanzen der der unbehandelten Kontrolle entspricht. Bei diesem Test zeigen z. B. die folgenden Verbindungen der Herstellungsbeispiele eine Wirkung von ≥ 80 % bei einer Aufwandmenge von 20 ppm: • Bsp. Nr. 15, 16, 18

Data set [2] is described as follows: logP (HCOOH). The note with it: hplc, formic acid.
The subject of data set [3] is Myzus persicae. Put plainly: Myzus test (spray treatment). To be noted: foliar, 500 g/ha, spray on Brassica pekinensis leaf discs, 100 % = all aphids killed, read-out: Wirkung. Format: in vivo. An excerpt: Myzus-Test (Spritzbehandlung)
Zur Herstellung einer zweckmäßigen Wirkstoffzubereitung vermischt man 1 Gewichtsteil Wirkstoff mit den angegebenen Mengen Lösungsmittel und Emulgator und verdünnt das Konzentrat mit emulgatorhaltigem Wasser auf die gewünschte Konzentration. Chinakohlblattscheiben (Brassica pekinensis), die von allen Stadien der Grünen Pfirsichblattlaus (Myzus persicae) befallen sind, werden mit einer Wirkstoffzubereitung der gewünschten Konzentration gespritzt. Nach der gewünschten Zeit wird die Wirkung in % bestimmt. Dabei bedeutet 100 %, dass alle Blattläuse abgetötet wurden; 0 % bedeutet, dass keine Blattläuse abgetötet wurden. Bei diesem Test zeigen z. B. die folgenden Verbindungen der Herstellungsbeispiele eine Wirkung von ≥ 80 % bei einer Aufwandmenge von 500 g/ha: • Bsp. Nr. 2, 3, 31, 32, 33, 36, 37, 39, 40, 41, 42, 43, 44, 45, 46, 63, 64, 65, 66, 86, 87, 88, 90, 95, 96, 97, 99, 103

In data set [4] the test system is Lucilia cuprina Larven. Nature of the data set: Lucilia cuprina test (treated horse meat, larvae). To be noted: 100 % = all larvae killed, read-out: Abtötung. The format is in vivo. The source says: Zur Herstellung einer zweckmäßigen Wirkstoffzubereitung vermischt man 1 Gewichtsteil Wirkstoff mit der angegebenen Menge Wasser und verdünnt das Konzentrat mit Wasser auf die gewünschte Konzentration. Gefäße, die Pferdefleisch enthalten, das mit der Wirkstoffzubereitung der gewünschten Konzentration behandelt wurde, werden mit Lucilia cuprina Larven besetzt. Nach der gewünschten Zeit wird die Abtötung in % bestimmt. Dabei bedeutet 100 %, dass alle Larven abgetötet wurden; 0 % bedeutet, dass keine Larven abgetötet wurden. Bei diesem Test zeigen z. B. die folgenden Verbindungen der Herstellungsbeispiele eine Wirkung von ≥ 80 % bei einer Aufwandmenge von 100 ppm: • Bsp. Nr. 65

Data set [5] has as its system Boophilus microplus. Put plainly: Boophilus microplus test (injection). The format is in vivo. To be noted: 20 µg/Tier; injection into abdomen; 100 % = no tick laid fertile eggs. An excerpt: Boophilus microplus -Test (Injektion)
Zur Herstellung einer zweckmäßigen Wirkstoffzubereitung vermischt man 1 Gewichtsteil Wirkstoff mit der angegebenen Menge Lösungsmittel und verdünnt das Konzentrat mit Lösungsmittel auf die gewünschte Konzentration. Die Wirkstofflösung wird in das Abdomen (Boophilus microplus) injiziert, die Tiere werden in Schalen überführt und in einem klimatisierten Raum aufbewahrt. Nach der gewünschten Zeit wird die Wirkung in % bestimmt. Dabei bedeutet 100%, dass keine Zecke fertile Eier gelegt hat. Bei diesem Test zeigen z. B. die folgenden Verbindungen der Herstellungsbeispiele eine Wirkung von = 80 % bei einer Aufwandmenge von 20 µg/Tier: • Bsp. Nr. 43, 44, 45, 46, 63, 64, 65, 66

Data set [6] relates to Tetranychus urticae. Nature of the data set: Tetranychus test, OP-resistant (spray treatment). The format is in vivo. To be noted: foliar, spray on Phaseolus vulgaris leaf discs, 100 % = all spider mites killed, read-out: Wirkung. The source says:
Tetranychus-Test, OP-resistent (Spritzbehandlung)
Zur Herstellung einer zweckmäßigen Wirkstoffzubereitung vermischt man 1 Gewichtsteil Wirkstoff mit den angegebenen Mengen Lösungsmittel und Emulgator und verdünnt das Konzentrat mit emulgatorhaltigem Wasser auf die gewünschte Konzentration. Bohnenblattscheiben (Phaseolus vulgaris), die von allen Stadien der Gemeinen Spinnmilbe (Tetranychus urticae) befallen sind, werden mit einer Wirkstoffzubereitung der gewünschten Konzentration gespritzt. Nach der gewünschten Zeit wird die Wirkung in % bestimmt. Dabei bedeutet 100 %, dass alle Spinnmilben abgetötet wurden; 0 % bedeutet, dass keine Spinnmilben abgetötet wurden. Bei diesem Test zeigen z. B. die folgenden Verbindungen der Herstellungsbeispiele eine Wirkung von ≥ 80 % bei einer Aufwandmenge von 100 g/ha: • Bsp. Nr. 83

With `CCNC(=S)N1CCOC1=NC(C)c1cccnc1` (stereo not drawn) [Beispiel 15], in data set [1], the “nematizide Wirkung an Hand der Gallenbildung” value is ≥ 80%. The molecule also came in with a chromatographic logP in data set [2] of 1.16.

With `CCNC(=S)N1CCOC1=NC(C)c1ccncc1` (stereo not drawn) [Beispiel 18], in data set [1], the “nematizide Wirkung an Hand der Gallenbildung” value was ≥ 80%. The same molecule showed a chromatographic logP in data set [2] of 1.07.

Consider `COCCNC(=S)N1CCOC1=N[C@@H](C)c1cccs1` [Beispiel 65], for which, in data set [3], the mortality at 500 g/ha was ≥ 80%. Also, the mortality at 100 ppm in data set [4] was ≥ 80%. In data set [5], this molecule displayed a Wirkung of 80%. The molecule further returned a chromatographic logP in data set [2] of 3.38.

On to `COCCNC(=S)N1CCOC1=NC(C)c1cccnc1` (stereo not drawn) [Beispiel 16], for which, in data set [1], the “nematizide Wirkung an Hand der Gallenbildung” value is on record as ≥ 80%. The same molecule returned a chromatographic logP in data set [2] of 1.07.

For the molecule `COCCNC(=S)N1CCOC1=NCc1cccn1C` [Beispiel 83], the mortality at 100 g/ha in data set [6] was ≥ 80%. This molecule also returned a chromatographic logP in data set [2] of 2.37.

With `CC(N=C1OCCN1C(=S)NCC(F)(F)F)c1cccs1` (stereo not drawn) [Beispiel 46], in data set [3], the mortality at 500 g/ha is ≥ 80%. In addition, the Wirkung in data set [5] is recorded as 80%. The molecule also returned a chromatographic logP in data set [2] of 3.99.

For the molecule `CNC(=S)N1CCOC1=N[C@@H](C)c1cccs1` [Beispiel 63], the mortality at 500 g/ha in data set [3] is ≥ 80%. Moreover, the Wirkung in data set [5] came out at 80%. For the same molecule, the chromatographic logP in data set [2] came to 3.02.
